{"source": "patent US20220125795A1", "about": "“THERAPEUTIC COMBINATIONS AND COMPOSITIONS FOR THE TREATMENT OF INFLAMMATORY BOWEL DISEASE” (RIJKSUNIVERSITEIT GRONINGEN, priority 2019, published 2022)", "format_in_all_cases": "in vivo, human", "key": {"[1]": {"tested_on": "Enterobacteriaceae including E. coli", "assay": "Prospective clinical intervention study in CD patients: fecal microbial composition", "conditions": "CD patients with thiopurine treatment; 100 mg riboflavin daily for 3 weeks", "protocol": "(§1) In a prospective clinical intervention study, 70 CD patients were included and divided into two groups with (active) and without (quiescent) evidence of mucosal inflammation (defined by fecal calprotectin (FC) cut-off value: 200 μg/g). Patients received 100 mg riboflavin daily for 3 weeks. Clinical disease activity (Harvey-Bradshaw Index: HBI), inflammatory biomarkers (including interleukin 2) as well as fecal microbial composition (including pathogenic Enterobacteriaceae including E. coli) were analyzed before and after riboflavin intervention."}, "[2]": {"assay": "Prospective clinical intervention study in CD patients: clinical disease activity (Harvey-Bradshaw Index)", "conditions": "100 mg riboflavin daily for 3 weeks, before vs after", "protocol": "as §1"}, "[3]": {"tested_on": "interleukin 2", "assay": "Prospective clinical intervention study in CD patients: inflammatory biomarkers (interleukin 2)", "conditions": "CD patients with thiopurine treatment; 100 mg riboflavin daily for 3 weeks", "protocol": "as §1"}}, "data": [{"smiles": "Cc1cc2nc3c(=O)[nH]c(=O)nc-3n(C[C@H](O)[C@H](O)[C@H](O)CO)c2cc1C", "note": "[riboflavin]", "values": [{"measurement": "Enterobacteriaceae including E. coli (fecal)", "setting": "[1]", "result": "further reduction"}, {"measurement": "clinical disease activity (HBI)", "setting": "[2]; CD patients with mesalazine treatment", "result": "this was not the case (not as pronounced as)"}, {"measurement": "clinical disease activity (HBI)", "setting": "[2]; CD patients with thiopurine treatment (particularly quiescent disease)", "result": "further reduced clinical disease activity (HBI)"}, {"measurement": "proinflammatory cytokine IL2", "setting": "[3]", "result": "further reduction"}]}]}
